Where two headings read alike, the source gives them in different places.
Tests used:
human D3 receptor = target: T1, human D3 receptor (Homo sapiens, UniProt P35462); assay: radioligand binding with [^3H]spiperone, D3
T1 construct: expressed in transfected cells; host or cells: Chinese hamster ovary (CHO) cells, membranes
Protocol: (§1) For the determination of binding affinity to the receptors of the dopamine D2 family membranes were established carrying the human D2long, D2short, D3 or D4.4 receptor subtype expressed in Chinese hamster ovary cell lines. In principle, the binding experiments started when incubating an appropriate amount of membrane with the radioligand [^3H]spiperone and the particular test compounds diluted in a wide range of different concentrations from subnanomolar up to micromolar.

5-HT2 receptor = target: T2, 5-HT2 receptor (Sus scrofa, UniProt P50129); assay: radioligand binding, porcine cortical membranes, [^3H]ketanserin
T2 construct: membrane preparations from porcine cortical material; from tissue; host or cells: porcine cerebral cortex membranes

human D2long receptor = target: T3, human D2long receptor (Homo sapiens, UniProt P14416); assay: radioligand binding with [^3H]spiperone, D2long; details: read-out: Ki D2lo
T3 construct: expressed in transfected cells; host or cells: Chinese hamster ovary (CHO) cells, membranes
Protocol: as §1

human D2short receptor = target: T4, human D2short receptor (Homo sapiens, UniProt P14416); assay: radioligand binding with [^3H]spiperone, D2short; details: read-out: Ki D2sh
T4 construct: expressed in transfected cells; host or cells: Chinese hamster ovary (CHO) cells, membranes
Protocol: as §1

[1] = target: dopamine D2short receptor (Homo sapiens, UniProt P14416); assay: [^35S]GTPγS-incorporation assay, intrinsic activity
5-HT1A receptor = target: T5, 5-HT1A receptor (Sus scrofa, UniProt A0A4X1UTF5); assay: radioligand binding, porcine cortical membranes, [^3H]8-OH-DPAT and [^3H]WAY 100635
T5 construct: membrane preparations from porcine cortical material; from tissue; host or cells: porcine cerebral cortex membranes
T5 sequence (A0A4X1UTF5 1-422): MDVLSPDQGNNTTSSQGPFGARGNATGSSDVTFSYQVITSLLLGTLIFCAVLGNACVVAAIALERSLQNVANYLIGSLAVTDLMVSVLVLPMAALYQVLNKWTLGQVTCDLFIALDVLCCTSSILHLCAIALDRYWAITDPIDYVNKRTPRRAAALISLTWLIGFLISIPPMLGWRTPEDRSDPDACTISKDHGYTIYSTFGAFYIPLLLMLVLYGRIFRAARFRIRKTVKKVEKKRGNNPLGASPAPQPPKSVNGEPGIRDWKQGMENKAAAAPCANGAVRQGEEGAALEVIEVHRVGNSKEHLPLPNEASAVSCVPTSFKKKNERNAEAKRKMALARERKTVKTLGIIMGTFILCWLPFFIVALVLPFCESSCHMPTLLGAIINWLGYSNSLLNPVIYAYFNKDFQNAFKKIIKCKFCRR

human D4.4 receptor = target: T6, human D4.4 receptor (Homo sapiens, UniProt P21917); assay: radioligand binding with [^3H]spiperone, D4.4
T6 construct: expressed in transfected cells; host or cells: Chinese hamster ovary (CHO) cells, membranes
T6 sequence (P21917 1-419): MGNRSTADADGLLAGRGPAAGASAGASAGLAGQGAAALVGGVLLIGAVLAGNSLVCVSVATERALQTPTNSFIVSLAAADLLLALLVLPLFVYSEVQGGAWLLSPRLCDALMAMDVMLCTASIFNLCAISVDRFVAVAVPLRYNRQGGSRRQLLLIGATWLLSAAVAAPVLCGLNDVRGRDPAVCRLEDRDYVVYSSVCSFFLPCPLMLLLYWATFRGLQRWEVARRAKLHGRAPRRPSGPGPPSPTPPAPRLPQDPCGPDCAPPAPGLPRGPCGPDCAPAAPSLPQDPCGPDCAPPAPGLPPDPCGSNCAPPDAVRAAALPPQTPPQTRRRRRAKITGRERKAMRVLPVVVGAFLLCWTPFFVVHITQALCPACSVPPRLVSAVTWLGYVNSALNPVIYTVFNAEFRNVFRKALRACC
Protocol: as §1

[2] = [^3H]spiperone, CHO membranes, mean of 2 to 4 experiments
[3] = porcine cortical membranes, [^3H]ketanserin
[4] = read-out: D2short: [^35S]GTPγS intrinsic activity, % activity of quinpirol
[5] = read-out: D2short: [^35S]GTPγS intrinsic activity
[6] = ether alkylene linker compounds

Chain of dopamine D2short receptor (P14416 1-414 isoform P14416-2): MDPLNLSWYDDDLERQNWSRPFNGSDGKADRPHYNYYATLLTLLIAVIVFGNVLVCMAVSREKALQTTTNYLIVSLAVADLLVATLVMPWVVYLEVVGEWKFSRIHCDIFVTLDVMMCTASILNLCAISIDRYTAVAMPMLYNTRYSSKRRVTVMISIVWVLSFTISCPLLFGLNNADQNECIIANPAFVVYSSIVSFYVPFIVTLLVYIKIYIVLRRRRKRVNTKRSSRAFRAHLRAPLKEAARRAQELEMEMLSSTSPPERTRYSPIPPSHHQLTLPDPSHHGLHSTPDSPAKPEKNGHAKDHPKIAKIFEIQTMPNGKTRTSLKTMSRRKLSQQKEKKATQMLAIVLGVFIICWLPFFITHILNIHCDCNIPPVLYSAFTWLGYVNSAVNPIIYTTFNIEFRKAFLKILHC
T4 sequence (P14416 1-414 isoform P14416-2): as above
T2 sequence (P50129 whole entry): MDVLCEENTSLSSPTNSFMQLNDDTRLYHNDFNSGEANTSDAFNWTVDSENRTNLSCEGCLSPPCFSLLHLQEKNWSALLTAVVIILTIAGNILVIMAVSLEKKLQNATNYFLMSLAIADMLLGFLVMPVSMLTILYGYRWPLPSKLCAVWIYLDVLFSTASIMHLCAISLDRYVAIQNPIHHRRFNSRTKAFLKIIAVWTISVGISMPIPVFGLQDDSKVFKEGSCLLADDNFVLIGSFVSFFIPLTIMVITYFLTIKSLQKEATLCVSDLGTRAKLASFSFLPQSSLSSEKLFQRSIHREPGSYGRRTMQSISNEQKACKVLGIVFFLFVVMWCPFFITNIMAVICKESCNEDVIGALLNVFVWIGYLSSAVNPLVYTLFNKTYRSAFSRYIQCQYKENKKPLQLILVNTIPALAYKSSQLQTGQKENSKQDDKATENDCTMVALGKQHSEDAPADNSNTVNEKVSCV
T1 sequence (P35462 whole entry): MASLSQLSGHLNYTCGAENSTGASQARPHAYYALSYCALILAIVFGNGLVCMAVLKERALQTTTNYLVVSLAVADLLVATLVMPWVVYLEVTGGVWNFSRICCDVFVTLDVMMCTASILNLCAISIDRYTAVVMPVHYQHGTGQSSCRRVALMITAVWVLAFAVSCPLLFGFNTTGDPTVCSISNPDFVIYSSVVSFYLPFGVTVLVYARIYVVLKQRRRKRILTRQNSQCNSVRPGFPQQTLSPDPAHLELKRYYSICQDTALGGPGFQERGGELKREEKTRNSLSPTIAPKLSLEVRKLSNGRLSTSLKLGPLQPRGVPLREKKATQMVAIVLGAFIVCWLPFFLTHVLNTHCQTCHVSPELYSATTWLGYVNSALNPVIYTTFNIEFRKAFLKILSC
T3 sequence (P14416 whole entry): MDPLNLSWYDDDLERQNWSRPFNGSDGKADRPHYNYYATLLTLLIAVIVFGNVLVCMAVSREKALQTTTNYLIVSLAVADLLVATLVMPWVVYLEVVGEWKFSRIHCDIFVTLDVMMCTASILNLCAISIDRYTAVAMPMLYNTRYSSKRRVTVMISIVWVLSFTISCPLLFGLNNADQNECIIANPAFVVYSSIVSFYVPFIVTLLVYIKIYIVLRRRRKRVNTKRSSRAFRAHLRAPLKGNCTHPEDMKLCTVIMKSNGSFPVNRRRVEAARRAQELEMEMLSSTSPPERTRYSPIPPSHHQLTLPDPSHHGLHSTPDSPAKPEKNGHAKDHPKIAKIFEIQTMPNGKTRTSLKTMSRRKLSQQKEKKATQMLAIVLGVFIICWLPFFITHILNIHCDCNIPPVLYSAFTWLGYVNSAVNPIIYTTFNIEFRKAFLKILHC

Compound	Ki (human D3 receptor; [2]) [nM]	Ki (5-HT2 receptor; [3]) [nM]	Ki (human D2long receptor; [2]) [nM]	Ki (human D2short receptor; [2]) [nM]	Emax [1, 4] [%]	Ki (5-HT1A receptor; porcine cortical membranes) [nM]	Ki (human D4.4 receptor; [2]) [nM]	melting point [°C]	Emax [1, 5] [%]	Ki (human D3 receptor; [6]) [nM]	ratio D2lo/D3 (human D3 receptor; ratio of Ki values)	Ki (5-HT2 receptor; [6]) [nM]	Ki (human D2long receptor; [6]) [nM]	Ki (human D2short receptor; [6]) [nM]	Ki (5-HT1A receptor; [6]) [nM]	Ki (human D4.4 receptor; [6]) [nM]
Clc1cccc(N2CCN(CCCCOc3cccc4ccnn34)CC2)c1Cl [Example E57, 7-[4-[4-(2,3-Dichlorophenyl)piperazin-1-yl]butoxy]pyrazolo[1,5-a]pyridine]	< 30	30 to 300	30 to 300	< 30	15 to 40	30 to 300	30 to 300	74								
Clc1cccc(N2CCN(CCCCOc3ccn4ncc(I)c4c3)CC2)c1Cl [Example E48, 5-[4-[4-(2,3-Dichlorophenyl)piperazin-1-yl]butoxy]3-iodo-pyrazolo[1,5-a]pyridine]	< 30	301 to 3000	30 to 300	< 30	< 15	301 to 3000	30 to 300	110								
Clc1ccccc1N1CCN(CCCCOc2ccn3nnnc3c2)CC1 [Example E98, 7-[4-[4-(2-Chlorophenyl)piperazin-1-yl]butoxy]tetrazolo[1,5-a]pyridine]	< 30	301 to 3000	< 30	< 30		< 30	< 30	101								
Clc1ccc(N2CCN(CCCCOc3ccn4nccc4c3)CC2)cc1 [Example E19, 5-[4-[4-(4-Chlorophenyl)piperazin-1-yl]butoxy]pyrazolo[1,5-a]pyridine]	30 to 300	301 to 3000	30 to 300	30 to 300	15 to 40	30 to 300	30 to 300	125								
COc1ccc(N2CCN(CCCCOc3ccn4nccc4c3)CC2)cc1 [Example E18]	30 to 300	301 to 3000	> 3000	301 to 3000	< 15	30 to 300	301 to 3000	111								
Clc1ccccc1N1CCN(CCCCOc2ccn3ncc(Br)c3c2)CC1 [Example E44, 3-Bromo-5-[4-[4-(2-chlorophenyl)piperazin-1-yl]butoxy]pyrazolo[1,5-a]pyridine]								84	15 to 40							
COc1ccccc1N1CCN(CCCCOc2nn3ccccc3c2C=O)CC1 [Example E5, 2-[4-[4-(2-Methoxyphenyl)piperazin-1-yl]butoxy]pyrazolo[1,5-a]pyridine-3-carbaldehyde]	< 30	301 to 3000	< 30	< 30		< 30	< 30	101	15 to 40							
O=Cc1c(OCCCCN2CCN(c3ccccc3Cl)CC2)nn2ccccc12 [Example E6, 2-[4-[4-(2-Chlorophenyl)piperazin-1-yl]butoxy]pyrazolo[1,5-a]pyridine-3-carbaldehyde]	< 30	301 to 3000	< 30	30 to 300		< 30	30 to 300	104	15 to 40							
N#Cc1cnn2ccc(OCCCCN3CCN(c4ccccc4Cl)CC3)cc12 [Example E38, 5-[4-[4-(2-Chlorophenyl)piperazin-1-yl]butoxy]pyrazolo[1,5-a]pyridine-3-carbonitrile]	< 30	30 to 300	< 30	< 30	15 to 40	< 30	< 30	119								
Clc1cccc(N2CCN(CCCCOc3ccn4ncc(Cl)c4c3)CC2)c1Cl [Example E45, 3-Chloro-5-[4-[4-(2,3-dichlorophenyl)piperazin-1-yl]butoxy]pyrazolo[1,5-a]pyridine]	< 30	301 to 3000	30 to 300	30 to 300	15 to 40	30 to 300	30 to 300	133								
COc1ccccc1N1CCN(CCCCOc2ccn3ncc(I)c3c2)CC1 [Example E49, 3-Iodo-5-[4-[4-(2-methoxyphenyl)piperazin-1-yl]butoxy]pyrazolo[1,5-a]pyridine]	< 30	301 to 3000	< 30	< 30	< 15	< 30	< 30	61								
Clc1ccccc1N1CCN(CCCCOc2ccn3ncc(I)c3c2)CC1 [Example E50, 5-[4-[4-(2-Chlorophenyl)piperazin-1-yl]butoxy]-3-iodo-pyrazolo[1,5-a]pyridine]		301 to 3000				30 to 300		94								
O=[N+]([O-])c1cccc(N2CCN(CCCCOc3ccn4nccc4c3)CC2)c1 [Example E65, 5-[4-[4-(3-Nitrophenyl)piperazin-1-yl]butoxy]pyrazolo[1,5-a]pyridine]								73								
Clc1cccc(N2CCN(CCCCOc3ccn4nnnc4c3)CC2)c1Cl [Example E63, 7-[4-[4-(2,3-Dichlorophenyl)piperazin-1-yl]butoxy]tetrazolo[1,5-a]pyridine]	< 30	30 to 300	< 30	< 30		30 to 300	< 30	138								
Nc1cccc(N2CCN(CCCCOc3ccn4nccc4c3)CC2)c1 [Example E66, 5-[4-[4-(3-Aminophenyl)piperazin-1-yl]butoxy]pyrazolo[1,5-a]pyridine]								86								
COc1ccccc1N1CCN(CCCCOc2ccn3ncc(CO)c3c2)CC1 [Example E72]	< 30	301 to 3000	< 30	< 30	15 to 40	< 30	< 30									
COc1ccccc1N1CCN(CCCCOc2cc3ccccn3n2)CC1 [Example E2, 2-[4-[4-(2-Methoxyphenyl)piperazin-1-yl]butoxy]pyrazolo[1,5-a]pyridine]	< 30	301 to 3000	< 30	< 30	< 15	< 30	< 30			12	0.83	910	10	16	1.3	17
COc1ccccc1N1CCN(CCCCOc2cccc3ccnn23)CC1 [Example E58, 7-[4-[4-(2-Methoxyphenyl)piperazin-1-yl]butoxy]pyrazolo[1,5-a]pyridine]	30 to 300	301 to 3000	30 to 300	30 to 300	15 to 40	< 30	< 30									
COc1ccccc1N1CCN(CCCCOc2ccn3ncc(C(C)=O)c3c2)CC1 [Example E28, 1-(5-[4-[4-(2-Methoxyphenyl)piperazin-1-yl]butoxy]pyrazolo[1,5-a]pyridine-3-yl)ethanone]	< 30	301 to 3000	< 30	< 30	15 to 40	< 30	< 30									
COc1ccccc1N1CCN(CCCCOc2ccn3nnnc3c2)CC1 [Example E97, 7-[4-[4-(2-Methoxyphenyl)piperazin-1-yl]butoxy]tetrazolo[1,5-a]pyridine]	< 30	> 3000	< 30	< 30		< 30	< 30	124								
